Usually Kd stands for the concentration at which binding is half-saturated. The term IC50 denotes the midpoint of a concentration-inhibition curve. As usually defined, the Km is the substrate concentration at which the rate is half of its maximum.

For assay [1] the following is noted: read-out: Kd,Zn(II); cited from earlier work.
The target of assay [2] is T1, NDM-1 (Klebsiella pneumoniae, UniProt C7C422). The assay is described as follows: NDM-1 inhibition with chromacef substrate. The format is biochemical.
The target of a further assay is NDM-15 Δ35 BL21 cells (Klebsiella pneumoniae, UniProt C7C422, A233V/M154L). Kind of assay: Confocal fluorescence imaging of 4D-treated live E. coli expressing Δ35 NDM-15. The format is cell-based. The following applies: DPA up to 200 μM.
In assay [3] the target is T1, NDM-1. The following applies: read-out: IC50 for purified NDM-1; cited from earlier work.
Assay [4] deals with Δ35 NDM-1 expressing BL21 (DE3) E. coli (Klebsiella pneumoniae, UniProt C7C422). The assay is described as follows: cell-based.
The target of assay [5] is T1, NDM-1. The assay is described as follows: Challenge of fluorescent 4D:NDM-1 complex with inhibitors and chelators. Type of assay: binding.
For assay [6], the system named is NDM-1. The following applies: substrate of NDM-1; cited from earlier work.

Where two headings read alike, the source gives them in different places.

Turning to `O=C([O-])CN(CCN(CC(=O)O)CC(=O)O)CC(=O)[O-].[Ca+2]` [CaEDTA, calcium EDTA], the Kd in assay [1] was 0.001 µM.

In the case of `O=C(O)c1cccc(C(=O)O)n1` [DPA, dipicolinic acid], the IC50 was 154 µM against NDM-1 [2], 0.5 µM on NDM-1 [3] and ~200 µM in assay [4]. Moreover, on NDM-15 Δ35 BL21 cells, the “effect on fluorescence” value is on record as “no effect on fluorescence”. Further, the “fluorescence turn-on of 4D:NDM-1 after treatment” value on NDM-1 [5] (DPA 150 μM, 50 μM ZnSO4, from 17-fold maximum) worked out at 13 fold.

Turning to `c1ccc(CN(CCN(Cc2ccccn2)Cc2ccccn2)Cc2ccccn2)nc1` [TPEN, N,N,N′,N′-tetrakis(2-pyridinyl-methyl)-1,2-ethanediamine], the “fluorescence after pre-incubation of NDM-1 with TPEN” value on NDM-1 [5] (10 μM NDM-1 and 10 μM 4D, recovered upon excess ZnSO4) is “complete reduction of fluorescence”. The “fluorescence turn-on after pre-incubation of NDM-1 with TPEN” value at NDM-1 [5] (30 μM NDM-1 pre-incubated with TPEN, then 10 μM 4D) is reported as ~ 4 fold. Also, at NDM-1 [5] (TPEN 50 μM, 10 μM ZnSO4, from 12-fold), the “fluorescence turn-on of 4D:NDM-1 after treatment” value came to 9.2 fold.

Regarding `CC1=C(C(=O)O)N2C(=O)[C@@H](NC(=O)[C@H](N)c3ccccc3)[C@H]2SC1` [cephalexin], in the assay with NDM-1 [6], the Km was 5.6 µM.

For chromacef, in the assay on NDM-1 [6], the Km was 0.66 ± 0.2 µM.

The record behind these values is paper PMC8230704 (Journal of the American Chemical Society, 2021).
